Numbered stars: 1 amine (or outer) side, 2 acyl side, 3 side chain; on linkers, the order of the positions; unused ones are H or OH. Square brackets hold non-standard residues; d marks the D form. Peptide text beside a SMILES is read from it. * marks the point of attachment. X1 = CC(N[*:1])C(=O)C(F)(F)C(=O)[*:2]; Boc = CC(C)(C)OC(=O)*

Series [1] relates to HDAC activity in HeLa extracts. Particulars: read-out: IC50 for inhibition of HDAC activity; cited from earlier work.
The target of the next series is CYP2D6 (Homo sapiens, UniProt P10635). As to conditions: 2 mg/kg debrisoquine by gavage; mice repopulated with iMPC-Heps or aHeps. An excerpt:
Scale bar=100 μm. […] Scale bars=100 μm. […] Scale bars=100 μm.

A further series concerns presenilase. Particulars: at higher concentrations (20-400 μM); cited from earlier work.
Another series addresses γ-secretase. Particulars: for total β-amyloid; cited from earlier work.
For series [2], the system named is iMPC-EPCs. Kind of series: Hepatocyte differentiation of iMPC-EPCs, ALB gene expression by qRT-PCR. Particulars: day 18 of hepatocyte specification; particularly when applied together.
Method: Error bars represent SEM of technical replicates (n=3).
For qRT-PCR analysis, total RNA was extracted using the miRNeasy Mini Kit (Qiagen) or RNeasy Plus Mini Kit in combination with QIAshredder (Qiagen). First-strand reverse transcription was performed with 0.5-1 μg RNA using the iScript cDNA Synthesis Kit (BioRad) or qScript cDNA Supermix (Quanta Biosciences). qRT-PCR was performed using PerfeCTa SYBR Green SuperMix (Quanta) or iQ SYBR Green Supermix (Bio-Rad) on an Applied Biosciences ViiA 7 Real-Time PCR System (Invitrogen). aHeps purchased from Yecuris or the Liver Tissue Cell Distribution System (LTCDS) were shipped overnight in suspension, centrifuged for 5 minutes at 300×g immediately after arrival, and stored as cell pellets at −80° C. prior to RNA extraction.
To improve hepatocyte differentiation, small molecules were screened for induction of ALB gene expression.
In a further series the target is T1, calpain II (Homo sapiens, UniProt P17655).
T1 sequence (P17655 1-700): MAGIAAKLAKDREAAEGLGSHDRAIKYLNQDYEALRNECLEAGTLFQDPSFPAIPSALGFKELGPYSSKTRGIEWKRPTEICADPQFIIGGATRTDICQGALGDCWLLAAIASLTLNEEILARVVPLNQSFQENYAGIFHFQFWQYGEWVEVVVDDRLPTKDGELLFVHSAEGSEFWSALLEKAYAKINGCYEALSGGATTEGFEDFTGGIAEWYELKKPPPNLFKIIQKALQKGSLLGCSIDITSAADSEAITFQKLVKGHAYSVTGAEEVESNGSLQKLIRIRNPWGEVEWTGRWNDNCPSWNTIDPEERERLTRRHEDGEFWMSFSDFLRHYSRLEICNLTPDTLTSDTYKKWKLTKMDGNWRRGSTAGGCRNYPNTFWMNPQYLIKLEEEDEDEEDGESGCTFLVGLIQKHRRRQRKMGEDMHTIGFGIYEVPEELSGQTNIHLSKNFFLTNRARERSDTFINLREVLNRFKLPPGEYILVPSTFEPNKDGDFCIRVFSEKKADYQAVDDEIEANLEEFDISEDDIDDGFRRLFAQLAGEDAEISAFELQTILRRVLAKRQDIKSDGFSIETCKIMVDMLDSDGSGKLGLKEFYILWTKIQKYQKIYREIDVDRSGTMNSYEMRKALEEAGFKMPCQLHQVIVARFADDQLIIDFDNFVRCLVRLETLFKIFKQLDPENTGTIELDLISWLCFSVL
T1 sequence (P04632 1-268 partner): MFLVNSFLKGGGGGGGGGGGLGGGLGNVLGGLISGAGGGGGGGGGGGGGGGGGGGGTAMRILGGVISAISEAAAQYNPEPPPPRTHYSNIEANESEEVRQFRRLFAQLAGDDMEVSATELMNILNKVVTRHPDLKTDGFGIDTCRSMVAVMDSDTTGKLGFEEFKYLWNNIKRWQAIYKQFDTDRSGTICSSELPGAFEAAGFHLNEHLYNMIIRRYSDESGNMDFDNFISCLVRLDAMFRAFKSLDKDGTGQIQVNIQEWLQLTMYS
Particulars: purified enzyme assay; read-out: IC50 against calpain II; cited from earlier work.

The subject of series [3] is iMPC-EPCs. Kind of series: Expansion of iMPC-EPC colonies.
Series [4] concerns histone deacetylases (HDACs). As to conditions: isoform not stated; read-out: IC50 (histone deacetylase inhibition); cited from earlier work.
The target in the next series is SAPK2/p38 (Homo sapiens, UniProt Q16539). Particulars: CK1 and ALK5 inhibitor versus SAPK2/p38; cited from earlier work.
SAPK2/p38, sequence (Q16539 whole entry): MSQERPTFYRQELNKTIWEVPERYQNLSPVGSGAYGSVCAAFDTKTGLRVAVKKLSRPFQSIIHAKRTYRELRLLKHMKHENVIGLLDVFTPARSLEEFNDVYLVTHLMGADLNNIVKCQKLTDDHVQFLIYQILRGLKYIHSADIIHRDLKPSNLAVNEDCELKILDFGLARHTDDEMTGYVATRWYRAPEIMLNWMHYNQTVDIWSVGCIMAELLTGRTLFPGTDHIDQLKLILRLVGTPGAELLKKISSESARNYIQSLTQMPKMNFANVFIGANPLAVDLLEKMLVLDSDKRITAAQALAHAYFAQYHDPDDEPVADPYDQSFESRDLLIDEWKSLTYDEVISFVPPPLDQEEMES
Series [5] deals with Human newborn fibroblasts (CRL-2097, ATCC). Description: Reprogramming of newborn fibroblasts to endoderm, FOXA2-positive colonies by immunostaining. Particulars: day 28; added to CHIR/Activin A reprogramming medium.
Method: The small molecules tested included combinations of CHIR99021 (CH), dilauroyl phosphatidylcholine (DLPC), sodium butyrate (NaB), parnate (Par), and RG108 (RG). […] Medium containing Activin A was additionally supplemented with the indicated small molecules.
Standard immunostaining was carried out as previously reported. […] Nuclei were visualized by Hoechst (Sigma-Aldrich) staining. Images were captured using a Nikon Eclipse TE2000-U microscope.
Next, EGF and bFGF were replaced with Activin A to induce Nodal signaling and promote endoderm fate (see FIG. 1A). […] To improve the efficiency of endoderm differentiation, the cells were exposed to several small molecules.

CYP2D6, sequence (P10635 whole entry): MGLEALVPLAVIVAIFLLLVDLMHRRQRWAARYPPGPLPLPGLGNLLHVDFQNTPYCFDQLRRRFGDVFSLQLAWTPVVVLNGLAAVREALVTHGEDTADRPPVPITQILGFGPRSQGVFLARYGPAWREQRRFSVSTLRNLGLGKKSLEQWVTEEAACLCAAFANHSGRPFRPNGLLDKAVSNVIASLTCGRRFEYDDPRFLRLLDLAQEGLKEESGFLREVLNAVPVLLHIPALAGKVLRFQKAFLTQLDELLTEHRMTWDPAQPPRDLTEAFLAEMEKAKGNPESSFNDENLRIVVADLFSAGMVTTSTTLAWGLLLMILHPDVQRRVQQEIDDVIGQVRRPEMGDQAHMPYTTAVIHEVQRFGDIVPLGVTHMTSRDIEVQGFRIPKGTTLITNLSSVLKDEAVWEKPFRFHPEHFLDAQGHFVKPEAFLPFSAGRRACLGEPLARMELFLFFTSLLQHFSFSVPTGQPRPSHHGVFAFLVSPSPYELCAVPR

Regarding `Nc1ccccc1NC(=O)CCCCCCC(=O)Nc1ccccc1` [BML-210, N1-(2-aminophenyl)-N8-phenyl-octanediamide], in series [1], the concentration for half-maximal inhibition (IC50) was ~80000 nM.
As to `N=C(N)N1Cc2ccccc2C(O)C1` (stereo not shown) [4-hydroxydebrisoquine], the “time of peak plasma level after gavage” value at CYP2D6 was found to be 1 h.
Turning to `C[C@H](NC(=O)Cc1cc(F)cc(F)c1)C(=O)N[C@H]1N=C(c2ccccc2)c2ccccc2N(C)C1=O` [Compound E], in the series on presenilase, the “effect on presenilase activity” value is “only weakly affects”. The IC50 on γ-secretase is 0.3 nM. The “induction of ALB gene expression” value in the series on iMPC-EPCs [2] is given as “effective”.
For the molecule `CCC(C)C(NC(=O)C(NC(=O)OC(C)(C)C)C(C)C)C(=O)NC(C)C(=O)C(F)(F)C(=O)NC(C(=O)NC(C(=O)OC)C(C)CC)C(C)C` (stereo not shown) [Gamma-Secretase Inhibitor II] (Boc-VI[X1]VI-OMe; configuration not given here), the half-maximal inhibitory concentration (IC50) at calpain II is 100000 nM.
Take bFGF: basic fibroblast growth factor: in the series with iMPC-EPCs [3] (EGF and bFGF added to CHIR99021 and A83-01), the iMPC-EPC colony size result is given as “further increased”.
In the case of `Cc1c[nH]c(-c2cnc(NCCNc3ccc(C#N)cn3)nc2-c2ccc(Cl)cc2Cl)n1` [CHIR99021, 6-(2-(4-(2,4-dichlorophenyl)-5-(4-methyl-1H-imidazol-2-yl)pyrimidin-2-ylamino)ethylamino)nicotinonitrile], the iMPC-EPC colony size entry with iMPC-EPCs [3] (CHIR99021 combined with A83-01) is reported as “increased”.
With `Nc1ccccc1NC(=O)c1ccc(CNC(=O)OCc2cccnc2)cc1` [MS-27-275, pyridin-3-ylmethyl-N-[[4-[(2-aminophenyl)carbamoyl]phenyl]methyl]carbamate], the IC50 in series [4] was 100 to 1000 nM.
On to `Nc1ccccc1NC(=O)c1ccc(CNc2nccc(-c3cccnc3)n2)cc1` [MGCD0103, N-(2-aminophenyl)-4-[[(4-pyridin-3-ylpyrimidin-2-yl)amino]methyl]benzamide], for which the IC50 in [4] is ~100 nM.
For the molecule `NC(=O)c1ccc(-c2nc(-c3ccc4c(c3)OCCO4)c(-c3ccccn3)[nH]2)cc1` [D 4476, 4-[4-(2,3-Dihydro-1,4-benzodioxin-6-yl)-5-(2-pyridinyl)-IH-imidazol-2-yl]benzamide], the “selectivity over SAPK2/p38” value at SAPK2/p38 is “greater than 20 fold”.
For `CC1(C)NC(=O)C(CCCCCC(=O)[C@H]2CO2)NC(=O)C2CCCN2C(=O)[C@@H](Cc2ccccc2)NC1=O` (stereo partly drawn) [Chlamydocin, (3R)-3-benzyl-6,6-dimethyl-9-[6-[(2R)-oxiran-2-yl]-6-oxohexyl]-1,4,7,10-tetrazabicyclo[10.3.0]pentadecane-2,5,8,11-tetrone], the 50% inhibitory concentration (IC50) in series [4] was ~0.15 nM.
As for `CCCCCCCCCCCC(=O)OC[C@H](COP(=O)([O-])OCC[N+](C)(C)C)OC(=O)CCCCCCCCCCC` [Dilauroyl phosphatidylcholine], the “increase in the number of FOXA2-positive colonies” value in series [5] was found to be 2 fold.
`Cc1cccc(-c2nn(C(=S)Nc3ccccc3)cc2-c2ccnc3ccccc23)n1` [A83-01, 3-(6-Methyl-2-pyridinyl)-N-phenyl-4-(4-quinolinyl)-1H-pyrazole-1-carbothioamide]: the iMPC-EPC colony size result with iMPC-EPCs [3] (CHIR99021 combined with A83-01) is recorded as “increased”. Besides, the “induction of ALB gene expression” value in the series on iMPC-EPCs [2] is given as “effective”.
As to `CC(/C=C/C(=O)NO)=C\[C@@H](C)C(=O)c1ccc(N(C)C)cc1` [Trichostatin A, (R,2E,4E)-6-(4-(dimethylamino)benzoyl)-N-hydroxy-4-methylhepta-2,4-dienamide], the 50% inhibitory concentration (IC50) in series [4] was ~1.8 nM.

Values taken from patent US9512406B2, “Generating hepatocytes” (The J. David Gladstone Institutes, a testamentary trust …, priority 2013, dated 2016).
